Assay results taken from US20240166684A1 (priority 2021, published 2024).
Entries after “also recorded” stand apart in the source; their conditions may differ. Where two headings read alike, the source gives them in different places. Non-standard residues stand in square brackets, D forms with d. Residues, ends and D or L forms follow the SMILES beside them. *: point of attachment. Nle = CCCC[C@H](N)C(=O)O; Cbz = O=C(OCc1ccccc1)*

How the values were obtained:
PrP^C [1] = settings: for effect of co-incubated inhibitor on ouabain-induced reduction in PrP^C levels: 25 nM ouabain or 20 nM ouabain; for effect on steady-state PrP^C levels: 3-day exposure (FIG. 7), ouabain 20 nM
ATP1A1 = assay type: cell-based, human
PrP^C [2] = settings: literature screens; cited from earlier work
ATP1A3 = assay type: cell-based, human
GFAP = assay type: cell-based, human
ATP1A2 = assay type: cell-based, human
ReN VM cells [3] = settings: human
[4] = mouse, in vivo, sc
NKAs [5] = settings: cited from earlier work
NKAs [6] = system: NKAs
[7] = system: 5′-ectonucleotidase (5′-NT); assay type: cell-based, human
NKAs [8] = settings: cited from earlier work; remark: listed apart in the source
ReN VM cells [9] = experiment: cells; assay type: cell-based, human
ReN VM cells [10] = experiment: cells; assay type: cell-based; settings: Homo sapiens, 168 h, read-out: concentration at which metabolic activity dropped to 50%
ReN VM cells [11] = experiment: cells; assay type: cell-based; settings: Homo sapiens, 168 h, read-out: cellular toxicity: concentration at which ATP levels drop to 50% of mock-treated control
HeLa cells = settings: cited from earlier work
NKA β subunit = assay type: cell-based, human
[12] = cited from earlier work
[13] = system: class III beta tubulin (Tuj-1); assay type: cell-based, human
[14] = differentiated ReN VM cells, one-week exposure

Molecule: bafilomycin
- effect of co-incubated inhibitor on ouabain-induced reduction in PrP^C levels (PrP^C [1]): rescued
- effect of co-incubated inhibitor on ouabain-induced reduction in ATP1A1 levels (ATP1A1): rescued

Molecule: C=CC[C@@H]1/C=C(\C)C[C@H](C)C[C@H](OC)[C@H]2O[C@@](O)(C(=O)C(=O)N3CCCC[C@H]3C(=O)O[C@H](/C(C)=C/[C@@H]3CC[C@@H](O)[C@H](OC)C3)[C@H](C)[C@@H](O)CC1=O)[C@H](C)C[C@@H]2OC [Tacrolimus]
- effective concentrations for reducing PrP^C levels (PrP^C [2]): micromolar

Molecule: CCCC[C@@H](C=O)NC(=O)[C@H](CC(C)C)NC(=O)[C@H](CC(C)C)NC(C)=O [A6185, N-acetyl-Leu-Leu-norleucinal] (Ac-Leu-Leu-[Nle]-aldehyde)
- effect on steady-state ATP1A3 levels (ATP1A3): no apparent effect
- effect on ouabain-induced formation of faster migrating GFAP bands (GFAP): blocked the excessive formation of faster migrating bands
- effect of co-incubated inhibitor on ouabain-induced reduction in PrP^C levels (PrP^C [1]): did neither prevent
- effect on steady-state PrP^C levels (PrP^C [1]; ReN VM cells): diminished
- effect on steady-state ATP1A1 levels (ATP1A1): no apparent effect
- effect on steady-state ATP1A2 levels (ATP1A2): diminished

Molecule: COC1C[C@H](O[C@H]2CC[C@]3(C)C4CC[C@]5(C)[C@@H](C6=CC(=O)OC6)[C@@H](OC(C)=O)C[C@]5(O)[C@@H]4CC[C@@H]3C2)OC(C)[C@@H]1O (stereo partly drawn) [oleandrin, acetic acid [(3S,5R,10S,13R,14S,16S,17′R)-14-hydroxy-3-[[(2R,4S,5S,6S)-5-hydroxy-4-methoxy-6-methyl-2-tetrahydropyranyl]oxy]-10,13-dimethyl-17-(5-oxo-2H-furan-3-yl)-1,2,3,4,5,6,7,8,9,11,12,15,16,17-tetradecahydrocyclopenta[a]phenanthren-16-yl] ester]
- tolerated concentration (ReN VM cells [3]): up to 2 nM
- brain levels relative to other organs [4]: lowest in the brain
- time of rapid increase in heart, kidney and liver [4]: 2 h
- potency of oleandrin relative to ouabain for similar reduction of ATP1A1 and PrP^C (PrP^C [1]; 7-day treatment, differentiated ReN VM cells): approximately tenfold higher potency; also recorded: tenfold lower levels
- concentration achieving similar reduction in ATP1A1 levels (ATP1A1): 4 nM
- concentration at which ATP1A1 levels rebound / increase (ATP1A1): around 2 nM

Molecule: C[C@@H]1O[C@@H](O[C@H]2C[C@@H](O)[C@]3(CO)[C@H]4[C@H](O)C[C@]5(C)[C@@H](C6=CC(=O)OC6)CC[C@]5(O)[C@@H]4CC[C@]3(O)C2)[C@H](O)[C@H](O)[C@H]1O [ouabain]
- effect on steady-state ATP1A3 levels (ATP1A3): not affected
- effect on GFAP antibody-reactive bands (GFAP): an increase in the intensity levels of bands that were reactive toward GFAP-directed antibodies
- time to dissociate from NKAs (NKAs [5]): less than two hours
- reduction of total 86Rb+ uptake by complete block of NKAs (NKAs [6]): 49%
- effect on steady-state 5′-NT levels [7]: increase
- effect on steady-state PrP^C levels (PrP^C [1]; ReN VM cells): reduction
- concentration at which PrP^C signal rebounds / migrates differently in SDS-PAGE (PrP^C [1]; [14]): 50 nM
- lowest concentration at which PrP^C reduction is apparent (PrP^C [1]; [14]): 3 nM
- concentration at which ATP1A1 levels rebound / increase (ATP1A1): 50 nM
- concentrations causing reduction of steady-state ATP1A1 levels (ATP1A1): up to 30 nM
- effect on steady-state ATP1A1 levels (ATP1A1): reduction
- lowest concentration at which ATP1A1 reduction is apparent (ATP1A1): 3 nM
- effect on steady-state ATP1A2 levels (ATP1A2): reduction
- IC50 (NKAs [8]): 15 to 41 nM

Molecule: calpastatin
- effect of co-incubated inhibitor on ouabain-induced reduction in PrP^C levels (PrP^C [1]): did neither prevent
- effect of co-incubated inhibitor on ouabain-induced reduction in ATP1A1 levels (ATP1A1): did neither prevent

Molecule: C[C@H]1O[C@@H](O[C@H]2[C@@H](O)C[C@H](O[C@H]3[C@@H](O)C[C@H](O[C@H]4CC[C@@]5(C)[C@H](CC[C@@H]6[C@@H]5C[C@@H](O)[C@]5(C)[C@@H](C7=CC(=O)OC7)CC[C@]65O)C4)O[C@@H]3C)O[C@@H]2C)C[C@H](O)[C@@H]1O [digoxin]
- increase of cellular calcium levels (ReN VM cells [9]): approximately 20%
- IC50 (ReN VM cells [9]; Homo sapiens, 168 h, read-out: concentration giving half maximum intracellular calcium levels): 30 nM
- level above which all three measures of cellular health dropped (ReN VM cells [3]): Above 10 nM
- IC50 (ReN VM cells [10]): ~50 nM
- time to dissociate from NKAs (NKAs [5]): 18 h
- IC50 (ReN VM cells [11]): ~25 nM

Molecule: CC(C)C[C@@H](C=O)NC(=O)[C@H](CC(C)C)NC(=O)[C@H](CC(C)C)NC(=O)OCc1ccccc1 [MG132] (Cbz-Leu-Leu-Leu-aldehyde)
- effect of co-incubated inhibitor on ouabain-induced reduction in PrP^C levels (PrP^C [1]): failed to block
- effect of co-incubated inhibitor on ouabain-induced reduction in ATP1A1 levels (ATP1A1): caused an increase in ATP1A1 steady-state levels

Molecule: COC1C[C@H](O[C@H]2CC[C@]3(C)C4CC[C@]5(C)[C@@H](C6=CC(=O)OC6)[C@@H](OC(C)=O)C[C@]5(O)[C@@H]4CC[C@@H]3C2)OC(C)C1=O (stereo partly drawn) [I-3, 4′-dehydro-oleandrin]
- IC50 (HeLa cells): 46 nM
- cytotoxicity relative to oleandrin (HeLa cells): slightly reduced relative to oleandrin
- concentration at which ATP1A3 levels reach a maximum (ATP1A3): 24 to 32 nM
- concentration up to which ATP1A3 levels stayed unchanged (ATP1A3): up to 8 nM
- effect on steady-state GFAP levels (GFAP): not paralleled by significant changes
- tolerated concentration (ReN VM cells [3]): up to 30 nM
- toxic concentration (ReN VM cells [3]): ≥ 40 nM
- concentration accumulated in the brain [4]: 38.8 nM
- time of highest levels in heart, kidney and liver [4]: 4 h
- effect on NKA β subunit levels (NKA β subunit): lesser, yet also pronounced reduction
- oral effectiveness (oral versus intravenous lethal doses), increase relative to oleandrin ([12]; cats): approximately 20%
- oral toxicity relative to oleandrin ([12]; in vivo, po): almost twofold lower
- maximum reduction in steady-state PrP^C levels (PrP^C [1]; 12 nM, one week, ReN VM cells): 84%
- concentration at which PrP^C signal rebounds / migrates differently in SDS-PAGE (PrP^C [1]; [14]): 20 to 32 nM
- concentrations causing concentration-dependent reduction of steady-state PrP^C levels (PrP^C [1]; [14]): 4 to 16 nM
- concentration achieving similar reduction in ATP1A1 levels (ATP1A1): 4 nM
- concentrations causing reduction of steady-state ATP1A1 levels (ATP1A1): up to 16 nM
- effect of I-3 on steady-state ATP1A2 levels (ATP1A2): declined as levels of exemplary compound I-3 were increased
- effect on Tuj-1 levels [13]: not paralleled by significant changes

Molecule: CC(=O)N[C@@H](CSC(=O)[C@]1([C@@H](O)C(C)C)NC(=O)[C@H](C)[C@@H]1O)C(=O)O [lactacystin]
- effect of co-incubated inhibitor on ouabain-induced reduction in PrP^C levels (PrP^C [1]): failed to block
- effect of co-incubated inhibitor on ouabain-induced reduction in ATP1A1 levels (ATP1A1): caused an increase in ATP1A1 steady-state levels
